{"source": "patent US20120122727A1", "about": "“IN VITRO METHOD FOR PREDICTING WHETHER A COMPOUND IS GENOTOXIC IN VIVO” (priority 2009, published 2012)", "key": {"[1]": {"test_system": "primary mouse hepatocytes", "experiment": "Gene expression (Affymetrix Mouse Genome 430 2.0) in primary mouse hepatocytes, true vs false GTX, 24 h and 48 h"}, "[2]": {"test_system": "primary mouse hepatocytes"}}, "data": [{"smiles": "Cl.ClCc1ccccn1", "note": "[2-CP, 2-(Chloromethyl)pyridine.HCl]", "values": [{"measurement": "Gene expression NM_012006 average", "setting": "[1]", "value": "−0.1277"}, {"measurement": "Gene expression NM_013642 average", "setting": "[1]", "value": 0.3967}, {"measurement": "Gene expression NM_013738 average", "setting": "[1]", "value": "−0.373"}, {"measurement": "Gene expression NM_013929 average", "setting": "[1]", "value": "−0.5291"}, {"measurement": "Gene expression NM_018881 average", "setting": "[1]", "value": "−0.0599"}, {"measurement": "Gene expression NM_019738 average", "setting": "[1]", "value": "−0.5143"}, {"measurement": "Gene expression NM_030697 average", "setting": "[1]", "value": "−0.0882"}, {"measurement": "Gene expression NM_053122 average", "setting": "[1]", "value": 0.1396}, {"measurement": "Gene expression NM_134147 average", "setting": "[1]", "value": 0.6449}, {"measurement": "Gene expression NM_134188 average", "setting": "[1]", "value": "−0.1373"}, {"measurement": "Gene expression X62701 average", "setting": "[1]", "value": "−0.146"}, {"measurement": "Gene expression data AF000969 (Cadps2)", "setting": "[1]", "value": "−0.1003"}, {"measurement": "Gene expression data AF022072 (Grb10)", "setting": "[1]", "value": 0.621}, {"measurement": "Gene expression data AF065917 (Lif)", "setting": "[1]", "value": 0.01213}, {"measurement": "Gene expression data AF297615 (Ggta1)", "setting": "[1]", "value": 0.06963}, {"measurement": "Gene expression data AI594683 (Dmn)", "setting": "[1]", "value": "−0.3157"}, {"measurement": "Gene expression data AI596632 (Ptprg /// LOC632664)", "setting": "[1]", "value": 0.2251}, {"measurement": "Gene expression data AI987929 (Ndrg1)", "setting": "[1]", "value": "−0.1004"}, {"measurement": "Gene expression data AK004419 (Fbxl17)", "setting": "[1]", "value": "−0.1203"}, {"measurement": "Gene expression data AK005731 (1700007K13Rik)", "setting": "[1]", "value": 0.1965}, {"measurement": "Gene expression data AK007766 (1810044A24Rik)", "setting": "[1]", "value": "−0.1235"}, {"measurement": "Gene expression data AK007854 (1810053B23Rik)", "setting": "[1]", "value": "−0.4492"}, {"measurement": "Gene expression data AK009736 (Gpr137b /// LOC664862 /// LOC673335)", "setting": "[1]", "value": 0.9644}, {"measurement": "Gene expression data AK010447 (Smyd3)", "setting": "[1]", "value": 0.06097}, {"measurement": "Gene expression data AK014608 (4632434l11Rik)", "setting": "[1]", "value": 0.5726}, {"measurement": "Gene expression data AK019979 (2610528E23Rik)", "setting": "[1]", "value": 0.3731}, {"measurement": "Gene expression data AV095209 (Mthfd1l)", "setting": "[1]", "value": 0.5754}, {"measurement": "Gene expression data AV141095 (1110033M05Rik)", "setting": "[1]", "value": 0.1817}, {"measurement": "Gene expression data AV173571 (1700106N22Rik)", "setting": "[1]", "value": "−0.01367"}, {"measurement": "Gene expression data AV219418 (Ldhb)", "setting": "[1]", "value": "−0.7968"}, {"measurement": "Gene expression data AV223474 (Zdhhc14)", "setting": "[1]", "value": "−0.4094"}, {"measurement": "Gene expression data AV298304 (Homez)", "setting": "[1]", "value": 0.1881}, {"measurement": "Gene expression data AV327248 (Zfp365 /// LOC674611)", "setting": "[1]", "value": 0.1477}, {"measurement": "Gene expression data AV377066 (9130221J18Rik)", "setting": "[1]", "value": "−0.6354"}, {"measurement": "Gene expression data AW240761 (Tbc1d5)", "setting": "[1]", "value": 0.02803}, {"measurement": "Gene expression data AW543460 (Pard3)", "setting": "[1]", "value": 0.2263}, {"measurement": "Gene expression data AW543723", "setting": "[1]", "value": 0.1487}, {"measurement": "Gene expression data AW986246 (Maoa)", "setting": "[1]", "value": 1.21}, {"measurement": "Gene expression data BB027848 (4732466D17Rik)", "setting": "[1]", "value": "−0.5716"}, {"measurement": "Gene expression data BB043558 (9230114K14Rik)", "setting": "[1]", "value": 0.4946}, {"measurement": "Gene expression data BB275142 (AW456874)", "setting": "[1]", "value": "−0.1954"}, {"measurement": "Gene expression data BB308836 (Ppm1l)", "setting": "[1]", "value": "−0.3692"}, {"measurement": "Gene expression data BB318221 (Zdhhc14)", "setting": "[1]", "value": "−0.2464"}, {"measurement": "Gene expression data BB463610 (4632434l11Rik)", "setting": "[1]", "value": 0.3848}, {"measurement": "Gene expression data BB526605 (Mipol1)", "setting": "[1]", "value": "−0.2134"}, {"measurement": "Gene expression data BB770528 (Rai2)", "setting": "[1]", "value": "−0.3271"}, {"measurement": "Gene expression data BB821363 (Scfd2)", "setting": "[1]", "value": "−0.1883"}, {"measurement": "Gene expression data BC004827 (Psat1)", "setting": "[1]", "value": 0.3654}, {"measurement": "Gene expression data BC008626 (Icam1)", "setting": "[1]", "value": "−0.242"}, {"measurement": "Gene expression data BC010462 (BC010462)", "setting": "[1]", "value": "−0.5895"}, {"measurement": "Gene expression data BC012247 (Dcxr)", "setting": "[1]", "value": "−0.3261"}, {"measurement": "Gene expression data BC012260 (Psmf1)", "setting": "[1]", "value": "−0.824"}, {"measurement": "Gene expression data BC015270 (Hist2h3c2)", "setting": "[1]", "value": "−0.231"}, {"measurement": "Gene expression data BC016073 (Cdkal1)", "setting": "[1]", "value": 0.03017}, {"measurement": "Gene expression data BC016265 (Ube2e2)", "setting": "[1]", "value": 0.0177}, {"measurement": "Gene expression data BC019882 (Acaa1b)", "setting": "[1]", "value": "−0.0399"}, {"measurement": "Gene expression data BC025501 (Aaas)", "setting": "[1]", "value": 0.0663}, {"measurement": "Gene expression data BC025837 (Sbk1)", "setting": "[1]", "value": "−0.5042"}, {"measurement": "Gene expression data BC025915 (Cova1)", "setting": "[1]", "value": 0.05827}, {"measurement": "Gene expression data BC026422 (Tgm1)", "setting": "[1]", "value": "−0.3825"}, {"measurement": "Gene expression data BF719766 (Thyn1)", "setting": "[1]", "value": 0.0395}, {"measurement": "Gene expression data BG065754 (Ccng1)", "setting": "[1]", "value": 0.3287}, {"measurement": "Gene expression data BG066903 (Kif16b)", "setting": "[1]", "value": 0.3368}, {"measurement": "Gene expression data BG069873 (Gnb1l)", "setting": "[1]", "value": "−0.1027"}, {"measurement": "Gene expression data BG070887 (Gtdc1)", "setting": "[1]", "value": "−0.06773"}, {"measurement": "Gene expression data BG076151 (Ppm1d)", "setting": "[1]", "value": 0.1213}, {"measurement": "Gene expression data BG261907 (Large)", "setting": "[1]", "value": "−0.1177"}, {"measurement": "Gene expression data BI651416 (Cdc42bpg)", "setting": "[1]", "value": 0.05237}, {"measurement": "Gene expression data BI660702 (Ell3)", "setting": "[1]", "value": 0.08167}, {"measurement": "Gene expression data BM198879 (Ercc5)", "setting": "[1]", "value": 0.2935}, {"measurement": "Gene expression data BM230508 (A030007D23Rik)", "setting": "[1]", "value": 0.3615}, {"measurement": "Gene expression data NM_007987 (Fas)", "setting": "[1]", "value": 0.2313}, {"measurement": "Gene expression data NM_008522 (Ltf)", "setting": "[1]", "value": "−0.3581"}, {"measurement": "Gene expression data NM_008576 (Abcc1)", "setting": "[1]", "value": 1.199}, {"measurement": "Gene expression data NM_011176 (St14)", "setting": "[1]", "value": "−0.05393"}, {"measurement": "Gene expression data NM_011316 (Saa4)", "setting": "[1]", "value": "−0.04463"}, {"measurement": "Gene expression data NM_012006 (Acot1)", "setting": "[1]", "value": 0.6012}, {"measurement": "Gene expression data NM_013866 (Zfp385)", "setting": "[1]", "value": "−0.1346"}, {"measurement": "Gene expression data NM_018770 (Igsf4a)", "setting": "[1]", "value": 0.14}, {"measurement": "Gene expression data NM_021451 (Pmaip1)", "setting": "[1]", "value": 0.02357}, {"measurement": "Gene expression data NM_025770 (Atg10)", "setting": "[1]", "value": 0.3445}, {"measurement": "Gene expression data NM_028803 (Gbe1)", "setting": "[1]", "value": 0.5242}, {"measurement": "Gene expression data NM_030697 (Ankrd47)", "setting": "[1]", "value": "−0.5785"}, {"measurement": "Gene expression data NM_053168 (Trim11)", "setting": "[1]", "value": "−0.06783"}, {"measurement": "Gene expression data NM_134188 (Acot2)", "setting": "[1]", "value": 0.501}, {"measurement": "Gene expression data Y15910 (Diap2)", "setting": "[1]", "value": 0.06693}, {"measurement": "Gene expression data AF204959 (Cyp3a25 /// LOC622249)", "setting": "[2]", "value": "−0.5019"}]}]}
